Measured values published in ChEMBL document CHEMBL1201862, “PubChem BioAssay data set” (2004).
One block for each compound: values may come before it. Active and inactive are the calls of the source.

Assays:
[1] = target: Induced myeloid leukemia cell differentiation protein Mcl-1 (Homo sapiens, UniProt Q07820); assay type: functional
[2] = target: T1, Tyrosine-protein phosphatase non-receptor type 7 (Homo sapiens, UniProt P35236); assay: redox-active compounds inhibiting HePTP phosphatase – biochemical, fluorescence, mechanism study (AID 2068); assay type: functional
T1 sequence (P35236 whole entry): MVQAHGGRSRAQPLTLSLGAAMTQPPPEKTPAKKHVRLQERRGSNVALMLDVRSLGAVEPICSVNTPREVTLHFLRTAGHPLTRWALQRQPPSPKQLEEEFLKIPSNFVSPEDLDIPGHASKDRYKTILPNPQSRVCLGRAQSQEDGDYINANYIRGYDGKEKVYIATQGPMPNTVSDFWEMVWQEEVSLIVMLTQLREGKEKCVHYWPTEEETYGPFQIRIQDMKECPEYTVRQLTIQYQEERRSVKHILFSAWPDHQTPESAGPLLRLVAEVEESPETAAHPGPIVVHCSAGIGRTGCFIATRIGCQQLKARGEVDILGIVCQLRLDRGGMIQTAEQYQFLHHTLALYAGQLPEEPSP

[3] = target: Genome polyprotein (dengue virus type 2, UniProt P29990); assay: flavivirus cap methylation enzyme inhibition – biochemical, confirmation dose response, primary screen (AID 588689); assay type: functional
[4] = target: T2, Polyadenylate-binding protein 1 (Homo sapiens, UniProt P11940); assay: MLLE binding blockers, Cy5 peptide tracer – biochemical, fluorescence polarization, Cy5-PAM2 peptide, secondary, miRNA deadenylation inhibitor project, dose response (AID 602260); assay type: functional; conditions: read-out: IC50_Mean
[5] = target: T2, Polyadenylate-binding protein 1; assay: MLLE domain peptide-binding blockers, IC50 – biochemical, fluorescence polarization, FITC-PAM2 peptide, dose response (AID 602259); assay type: functional; conditions: read-out: IC50_Mean
[6] = test system: J774.A1; assay: Confirmation of image-based Screening Assay for Inhibitors of Phagocytosis. [Related pubchem assays (depositor defined):AID1029, AID1643]; assay type: functional, cell-based; conditions: Mus musculus
[7] = test system: T-cell; assay: loss of vesicle association with mouse CD8+ T cells – mouse 2C CD8+ T cells, flow cytometry, dose response (AID 485284); assay type: functional
[8] = target: CAAX prenyl protease 2 (Saccharomyces cerevisiae S288c, UniProt Q03530); assay type: biochemical
[9] = target: Envelope glycoprotein gp160 (Human immunodeficiency virus 1, UniProt Q6QLK5); assay: cell-free HIV fusion peptide-binding blockers – biochemical, uHTS, fluorescence dequenching, […] (AID 1986)
[10] = target: T3, SUMO-activating enzyme (Homo sapiens, UniProt Q9UBT2); assay: blockers of UBC9-mediated SUMO conjugation – biochemical, AlphaScreen, SUMOylation inhibitor project, confirmation (AID 2018); assay type: functional
[11] = target: T3, SUMO-activating enzyme; assay: blockers of SAE1/SAE2–UBC9 SUMO transfer – biochemical, HTRF, uHTS, primary screen (AID 2006); assay type: protein-complex assay
[12] = target: Eukaryotic translation initiation factor 4E (Mus musculus, UniProt P63073); assay: blockers of eIF4G binding by eIF4E – biochemical, TR-FRET, dose response (AID 855); assay type: functional;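 also: potency for disrupting eIF4E binding to eIF4GI seen as loss of FRET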
[13] = target: T4, Small ubiquitin-related modifier 2 (Homo sapiens, UniProt P61956); assay: disruption of SUMO2 interaction with SIM peptide – biochemical, fluorescence polarization, uHTS hits, selectivity assay for SUMO1 interaction inhibitor project, dose response (AID 624385); assay type: functional; conditions: read-out: IC50_Mean
[14] = target: T5, Small ubiquitin-related modifier 1 (Homo sapiens, UniProt P63165); assay: SUMO1 protein interaction blockers, potency – biochemical, fluorescence polarization, uHTS hits, dose response (AID 624382); assay type: functional; conditions: read-out: IC50_Mean
[15] = target: T4, Small ubiquitin-related modifier 2; assay: SUMO2 binding disruption by SUMO1 hits – biochemical, FRET, human SUMO2, uHTS hits, selectivity assay for SUMO1 interaction inhibitor project, dose response (AID 624384); assay type: functional; conditions: read-out: IC50_Mean
[16] = target: T5, Small ubiquitin-related modifier 1; assay: SUMO1 protein-protein binding blockers, potency – biochemical, FRET, dose response (AID 624383); assay type: functional; conditions: read-out: IC50_Mean
[17] = target: Diphosphomevalonate decarboxylase (Streptococcus pneumoniae serotype 2 (strain D39 / NCTC 7466), UniProt Q9FD53); assay: diphosphomevalonate decarboxylase inhibitor confirmation – biochemical, cuvette format, coupled NADH fluorescence (AID 1028); assay type: functional
[18] = target: Phosphomannomutase 2 (Homo sapiens, UniProt O15305); assay: Counter screen SAR assay for PMM2 inhibitors via a fluorescence intensity assay. [Related pubchem assays (depositor defined):AID1545, AID1574]
[19] = target: Phosphoethanolamine/phosphocholine phosphatase (Homo sapiens, UniProt Q8TCT1); assay: SAR assay for compounds that inhibit PHOSPHO1. [Related pubchem assays (depositor defined):AID1545, AID1565, AID1574]
[20] = target: T6, Alkaline phosphatase, tissue-nonspecific isozyme (Homo sapiens, UniProt P05186); assay: potency against alkaline phosphatase TNAP – biochemical, luminescent, dose response, SAR follow-up (AID 1056)
T6 sequence (P05186 whole entry): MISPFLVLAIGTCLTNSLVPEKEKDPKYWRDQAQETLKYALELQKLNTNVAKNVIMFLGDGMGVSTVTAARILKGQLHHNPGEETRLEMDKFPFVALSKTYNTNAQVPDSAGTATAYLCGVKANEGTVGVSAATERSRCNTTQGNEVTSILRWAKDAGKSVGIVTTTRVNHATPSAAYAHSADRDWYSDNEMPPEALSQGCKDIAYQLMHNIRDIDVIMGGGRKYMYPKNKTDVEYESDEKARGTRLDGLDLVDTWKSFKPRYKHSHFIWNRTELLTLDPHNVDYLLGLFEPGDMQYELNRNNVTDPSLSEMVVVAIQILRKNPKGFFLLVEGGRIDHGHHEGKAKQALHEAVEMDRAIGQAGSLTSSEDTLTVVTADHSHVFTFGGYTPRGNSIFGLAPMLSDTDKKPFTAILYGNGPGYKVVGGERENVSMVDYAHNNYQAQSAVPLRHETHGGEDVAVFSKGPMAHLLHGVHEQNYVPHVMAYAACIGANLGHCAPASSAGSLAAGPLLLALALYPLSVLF

Induced myeloid leukemia cell differentiation protein Mcl-1, sequence (Q07820 whole entry): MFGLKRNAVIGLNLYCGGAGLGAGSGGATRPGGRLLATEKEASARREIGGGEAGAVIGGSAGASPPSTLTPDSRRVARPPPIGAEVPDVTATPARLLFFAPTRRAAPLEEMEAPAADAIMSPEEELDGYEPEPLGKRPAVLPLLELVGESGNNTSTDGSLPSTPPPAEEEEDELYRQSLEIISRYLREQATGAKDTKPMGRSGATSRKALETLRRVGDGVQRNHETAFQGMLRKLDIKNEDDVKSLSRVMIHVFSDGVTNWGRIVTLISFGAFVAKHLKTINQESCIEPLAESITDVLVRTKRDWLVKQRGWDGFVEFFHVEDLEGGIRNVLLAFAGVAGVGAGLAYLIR
T4 sequence (P61956 whole entry): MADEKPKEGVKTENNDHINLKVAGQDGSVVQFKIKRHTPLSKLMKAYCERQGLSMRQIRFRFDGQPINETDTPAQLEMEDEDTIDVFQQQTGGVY
T3 sequence (Q9UBE0 whole entry): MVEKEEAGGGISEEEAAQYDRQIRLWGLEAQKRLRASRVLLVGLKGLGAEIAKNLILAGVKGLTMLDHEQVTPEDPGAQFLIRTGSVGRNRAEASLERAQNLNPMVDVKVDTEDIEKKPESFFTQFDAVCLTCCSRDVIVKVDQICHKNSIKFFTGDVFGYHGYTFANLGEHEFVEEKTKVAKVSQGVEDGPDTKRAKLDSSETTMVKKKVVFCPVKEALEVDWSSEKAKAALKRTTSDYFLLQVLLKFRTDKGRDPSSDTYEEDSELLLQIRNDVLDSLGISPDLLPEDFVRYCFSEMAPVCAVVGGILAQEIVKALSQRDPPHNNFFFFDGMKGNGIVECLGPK
T3 sequence (Q9UBT2 whole entry): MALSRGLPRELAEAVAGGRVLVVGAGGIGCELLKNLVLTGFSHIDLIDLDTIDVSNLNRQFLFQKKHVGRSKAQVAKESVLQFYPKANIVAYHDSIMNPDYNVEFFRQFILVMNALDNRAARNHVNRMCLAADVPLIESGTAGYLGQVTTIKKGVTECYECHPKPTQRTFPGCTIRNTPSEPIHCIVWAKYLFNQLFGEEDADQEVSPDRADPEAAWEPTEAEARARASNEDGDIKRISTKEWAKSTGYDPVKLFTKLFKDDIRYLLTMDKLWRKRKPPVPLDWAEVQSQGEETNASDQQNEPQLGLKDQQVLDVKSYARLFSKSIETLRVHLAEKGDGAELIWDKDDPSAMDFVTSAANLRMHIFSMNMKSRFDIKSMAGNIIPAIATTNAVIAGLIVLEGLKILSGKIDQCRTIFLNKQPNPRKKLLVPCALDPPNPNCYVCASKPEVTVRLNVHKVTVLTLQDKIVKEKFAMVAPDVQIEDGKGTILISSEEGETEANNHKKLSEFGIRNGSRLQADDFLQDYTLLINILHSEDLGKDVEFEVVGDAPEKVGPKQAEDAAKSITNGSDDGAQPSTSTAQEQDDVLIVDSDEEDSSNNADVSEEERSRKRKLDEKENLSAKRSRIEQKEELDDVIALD
T2 sequence (P11940 whole entry, the tested form may be a part): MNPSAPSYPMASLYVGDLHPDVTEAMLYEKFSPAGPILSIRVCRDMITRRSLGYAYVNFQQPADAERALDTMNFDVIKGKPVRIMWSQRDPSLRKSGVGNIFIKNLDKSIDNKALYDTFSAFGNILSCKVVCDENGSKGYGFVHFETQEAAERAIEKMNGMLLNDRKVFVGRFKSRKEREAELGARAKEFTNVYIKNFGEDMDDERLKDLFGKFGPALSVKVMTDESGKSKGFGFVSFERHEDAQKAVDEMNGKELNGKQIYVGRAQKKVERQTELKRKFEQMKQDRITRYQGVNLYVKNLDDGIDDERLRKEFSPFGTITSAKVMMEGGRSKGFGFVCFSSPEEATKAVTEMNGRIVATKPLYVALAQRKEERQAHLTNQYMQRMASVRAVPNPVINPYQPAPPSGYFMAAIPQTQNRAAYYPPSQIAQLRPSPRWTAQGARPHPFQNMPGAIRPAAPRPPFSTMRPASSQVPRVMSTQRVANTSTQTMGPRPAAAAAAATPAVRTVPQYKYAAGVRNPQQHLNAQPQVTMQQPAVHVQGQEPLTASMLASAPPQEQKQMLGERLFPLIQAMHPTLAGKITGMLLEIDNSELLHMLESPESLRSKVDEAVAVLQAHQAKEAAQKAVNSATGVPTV
T5 sequence (P63165 whole entry): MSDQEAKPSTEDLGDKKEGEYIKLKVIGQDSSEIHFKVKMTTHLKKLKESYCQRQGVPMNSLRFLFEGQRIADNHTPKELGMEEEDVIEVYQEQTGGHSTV
CAAX prenyl protease 2, sequence (Q03530 whole entry, the tested form may be a part): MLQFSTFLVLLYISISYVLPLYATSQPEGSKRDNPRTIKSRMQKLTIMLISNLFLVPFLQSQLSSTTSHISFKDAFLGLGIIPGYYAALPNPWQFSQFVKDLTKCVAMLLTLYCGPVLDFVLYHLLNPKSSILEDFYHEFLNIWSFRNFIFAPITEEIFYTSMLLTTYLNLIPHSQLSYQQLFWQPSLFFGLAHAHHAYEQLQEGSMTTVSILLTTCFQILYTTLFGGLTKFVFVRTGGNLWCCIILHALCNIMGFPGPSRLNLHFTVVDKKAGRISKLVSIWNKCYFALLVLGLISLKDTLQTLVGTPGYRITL
Eukaryotic translation initiation factor 4E, sequence (P63073 whole entry): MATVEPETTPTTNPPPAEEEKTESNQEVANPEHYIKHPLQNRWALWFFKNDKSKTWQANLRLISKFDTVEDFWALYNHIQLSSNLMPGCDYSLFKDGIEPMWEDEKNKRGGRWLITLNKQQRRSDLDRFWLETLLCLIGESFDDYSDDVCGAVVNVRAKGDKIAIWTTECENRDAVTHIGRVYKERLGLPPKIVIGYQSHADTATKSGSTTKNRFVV
Diphosphomevalonate decarboxylase, sequence (Q9FD53 whole entry): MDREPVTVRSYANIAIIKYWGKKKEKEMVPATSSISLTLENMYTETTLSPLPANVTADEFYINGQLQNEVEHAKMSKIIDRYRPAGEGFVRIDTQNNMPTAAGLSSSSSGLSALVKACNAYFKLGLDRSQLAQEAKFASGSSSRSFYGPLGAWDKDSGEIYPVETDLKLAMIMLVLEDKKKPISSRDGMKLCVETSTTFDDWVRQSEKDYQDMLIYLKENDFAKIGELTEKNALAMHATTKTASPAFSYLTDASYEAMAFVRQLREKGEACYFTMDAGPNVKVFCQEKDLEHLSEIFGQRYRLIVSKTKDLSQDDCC
Phosphomannomutase 2, sequence (O15305 whole entry): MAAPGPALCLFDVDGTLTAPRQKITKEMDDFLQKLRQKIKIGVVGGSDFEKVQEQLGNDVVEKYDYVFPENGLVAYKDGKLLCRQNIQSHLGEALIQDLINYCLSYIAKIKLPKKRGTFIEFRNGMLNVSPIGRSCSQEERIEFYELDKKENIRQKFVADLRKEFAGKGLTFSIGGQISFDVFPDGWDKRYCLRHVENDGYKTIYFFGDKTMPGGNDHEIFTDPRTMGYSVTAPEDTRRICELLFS
Genome polyprotein, sequence (P29990 2492-3391 limits assumed): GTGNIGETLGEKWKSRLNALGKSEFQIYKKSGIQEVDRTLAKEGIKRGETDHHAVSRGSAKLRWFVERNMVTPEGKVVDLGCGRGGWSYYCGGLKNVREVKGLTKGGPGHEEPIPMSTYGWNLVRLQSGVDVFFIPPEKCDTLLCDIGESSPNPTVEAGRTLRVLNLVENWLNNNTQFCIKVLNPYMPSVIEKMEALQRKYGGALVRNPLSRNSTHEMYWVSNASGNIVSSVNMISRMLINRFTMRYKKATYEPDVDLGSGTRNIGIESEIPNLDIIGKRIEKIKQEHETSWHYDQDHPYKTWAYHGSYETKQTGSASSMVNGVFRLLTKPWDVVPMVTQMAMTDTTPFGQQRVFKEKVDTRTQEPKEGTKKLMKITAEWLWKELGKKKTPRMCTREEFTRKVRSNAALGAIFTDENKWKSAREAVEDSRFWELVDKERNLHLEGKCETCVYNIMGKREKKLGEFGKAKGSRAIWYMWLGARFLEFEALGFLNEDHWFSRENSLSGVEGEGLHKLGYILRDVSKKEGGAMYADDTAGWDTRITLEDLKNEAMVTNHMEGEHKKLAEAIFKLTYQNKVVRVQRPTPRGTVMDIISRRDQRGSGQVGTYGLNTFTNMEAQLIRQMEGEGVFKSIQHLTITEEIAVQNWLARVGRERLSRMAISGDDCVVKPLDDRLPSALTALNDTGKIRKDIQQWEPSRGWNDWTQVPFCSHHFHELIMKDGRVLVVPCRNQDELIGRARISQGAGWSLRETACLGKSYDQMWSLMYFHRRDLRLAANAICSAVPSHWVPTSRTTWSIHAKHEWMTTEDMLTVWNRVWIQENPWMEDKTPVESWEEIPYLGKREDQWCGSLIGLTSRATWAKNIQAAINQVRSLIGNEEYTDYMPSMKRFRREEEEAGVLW
Phosphoethanolamine/phosphocholine phosphatase, sequence (Q8TCT1 whole entry): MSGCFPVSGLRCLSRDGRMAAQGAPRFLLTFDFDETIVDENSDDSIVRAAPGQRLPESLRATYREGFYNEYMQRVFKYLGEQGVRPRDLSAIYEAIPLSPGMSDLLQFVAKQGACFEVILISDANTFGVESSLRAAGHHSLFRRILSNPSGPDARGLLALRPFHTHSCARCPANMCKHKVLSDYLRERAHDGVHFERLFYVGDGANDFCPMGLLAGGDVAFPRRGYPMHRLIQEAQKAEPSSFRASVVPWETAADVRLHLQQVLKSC

IC50 [1]: 3.09 µM (active)
IC50 [2]: 2.79 µM (active)
IC50 [3]: 73.9 µM (active)
IC50 [4]: > 66 µM (inactive)
IC50 [5]: > 66 µM (inactive)
SMILES: COc1ccc2nc(-c3ccco3)c(-c3ccco3)nc2c1

SMILES: COc1ccccc1/C=C/C(=O)OCC(=O)Nc1cc(C(F)(F)F)ccc1N1CCOCC1
IC50 [6]: > 25 µM (inactive)

SMILES: COc1ccc(C2=CC(=O)CC(c3ccc(OC)cc3)C2)cc1 (stereo unspecified)
EC50 [7]: 4.09 µM (active)

AC50 [8]: 6.98 µM (active)
SMILES: CCN(CC)CCN(C(=O)c1cc2ccccc2cc1OC)c1nc2ccc(F)cc2s1

SMILES: O=C(O)c1cccc2c1NC(c1cccc([N+](=O)[O-])c1)C1CC(Sc3ccccc3[N+](=O)[O-])C(Cl)C21 (stereo unspecified)
IC50 [9]: 12.5 µM (active)
IC50 [10]: 2.43 µM (active)
IC50 [11]: 13.3 µM (active)
IC50 [1]: 3.05 µM (active)
IC50 [12]: 50 µM (inactive)
IC50 [13]: 6.5 µM (active)
IC50 [14]: 6.45 µM (active)
IC50 [15]: 6.16 µM (active)
IC50 [16]: 36.6 µM (inactive)

SMILES: CN(C)C(=O)c1cccc(-n2sc3ccccc3c2=O)c1
IC50 [17]: 24.4 µM (active)
IC50 [18]: 76.4 µM (active)
IC50 [19]: 139 nM (active)
IC50 [20]: > 100 µM (inactive)
